# Laboratory results: US7943577B2, “Alpha-fetoprotein peptides and uses thereof” (Albany Medical College, priority 2001, dated 2011)
# Tests used:
# [1] = system: MAPK activation and ER phosphorylation in T47-D human breast cancer cells; test: E2-induced MAPK activation and ER serine-118 phosphorylation in T47-D cells; type: cell-based; settings: E2 10^−8M, 60 m
# Protocol: Cells were treated with E2 for 60 m and lysed. The nuclear fraction was isolated, separated by gel electrophoresis of the nucleoproteins, and the proteins were transferred to membranes. The resolved nucleoproteins were immunoblotted with anti-phosphoMAPK (activated MAPK, pMAPK) and anti-phosphoER (pER.) The anti-pER is directed to ER's serine-118. The peptides of the invention, at, e.g., […], blocks MAPK E2 activation and E2-induced ER phosphorylation. However, there is no enhancement by E2 of either MAPK activation or ER phosphorylation when E2 is added with the peptides of the invention. It has been shown by Lobehofer et al. (Cell Growth Differ 11: 99-110 (2000)) that pharmacological inhibition of MAPK prevents E2-induced mitogenesis in human breast cancer cell line (MCF-7). Therefore, the peptides of the invention block ER phosphorylation, a step which is required for full transcriptional activity of ER, and as such, the peptides of the invention are useful anti-cancer, e.g., breast cancer, agents.
# The inventors, while not wishing to be limited to a particular method or theory of how the present invention operates, have performed experiments using T-47D cells cultured with estradiol plus peptides of the invention, estradiol alone, peptide alone, or no additives (control). […] There was a corresponding reduction in the phosphorylation of serine 118 on the estrogen receptor. […]
# [2] = system: DU145 prostate carcinoma cells; test: PCNA and nuclear ERα immunoblot, DU145; type: cell-based, human; parameters: key to Total Nuclear Estrogen Receptor / PCNA accumulation: “+” indicates increase; “−” indicates decrease; “NC” indicates no change
# Protocol: (§1) Cell lines. Glioma cells: C6 cells were cultured in F-12K medium with 18% FBS. F98 cells and GL261 cells were cultured in DMEM with 10% FBS. Head and neck cancer: 22B cells were cultured in DMEM with 10% FBS. Papillary thyroid cancers: BHP2-7 cells and BHP18-21 cells were cultured in DMEM with 10% FBS. Small cell lung cancer: HTB184 cells were cultured in RPMI medium with 10% FBS. Breast cancers: MCF-7 cells were cultured in DMEM (w/o phenol red) with 5% FBS and MDA-MB cells were cultured in DMEM with 10% FBS. Colon cancer: Colo 205 cells were cultured in RPMI medium with 10% FBS. Ovarian cancer: OVCAR-3 cells were culture in RPMI medium with 20% FBS supplemented with insulin. Prostate cancers: LNCaP cells were cultured in RPMI medium with 10% FBS. DU145 cells were cultured in MEM with 10% FBS and PC3 cells were cultured in F-12 medium with 10% FBS. Cervical cancer: HeLa cells were cultured in MEM with 10% FBS. Melanoma cells were cultured in DMEM with 10% FBS. These conditions were determined to maintain cellular production of proliferating cell nuclear antigen (PCNA) at high levels immediately prior to study of AFP-related peptide. All cell cultures were maintained in a 5% CO2/95% O2 incubator at 37 C. Cell fractionation. Fractionation in a microfuge and preparation of nucleoproteins was by our previously reported methods (1-3). Nuclear extracts were prepared by resuspension of the crude nuclei in high salt buffer (hypotonic buffer with 420 mM NaCl and 20% glycerol) at 4° C. with rocking for 1 hr. The supernatants were collected after subsequent centrifugation at 4° C. and 13,000 rpm for 10 min. Immunoblotting. The techniques are standard and have been described in a number of our publications (1-3). In brief, nucleoproteins were separated on discontinuous SDS-PAGE and then transferred by electroblotting to nitocellulose membranes (Millipore, Bedford, Mass.). […] Immunoreactive proteins are detected by chemiluminescence.
# [3] = system: colon cancer (Colo 205) cells; test: PCNA and nuclear ERα immunoblot, Colo 205; type: cell-based, human; parameters: key to Total Nuclear Estrogen Receptor / PCNA accumulation: “+” indicates increase; “−” indicates decrease; “NC” indicates no change
# Protocol: as §1
# [4] = system: GL261 glioma cells; test: PCNA and nuclear ERα immunoblot, GL261; type: cell-based, murine; parameters: key to Total Nuclear Estrogen Receptor / PCNA accumulation: “+” indicates increase; “−” indicates decrease; “NC” indicates no change
# Protocol: as §1
# [5] = system: C6 glioma cells; test: PCNA and nuclear ERα immunoblot, C6; type: cell-based, murine; parameters: key to Total Nuclear Estrogen Receptor / PCNA accumulation: “+” indicates increase; “−” indicates decrease; “NC” indicates no change
# Protocol: as §1
# [6] = system: F98 glioma cells; test: PCNA and nuclear ERα immunoblot, F98; type: cell-based, murine; parameters: key to Total Nuclear Estrogen Receptor / PCNA accumulation: “+” indicates increase; “−” indicates decrease; “NC” indicates no change
# Protocol: as §1
# [7] = system: head and neck 22B cancer cells; test: PCNA and nuclear ERα immunoblot, 22B; type: cell-based, human; parameters: key to Total Nuclear Estrogen Receptor / PCNA accumulation: “+” indicates increase; “−” indicates decrease; “NC” indicates no change
# Protocol: as §1
# [8] = system: HeLa cervical cancer cells; test: PCNA and nuclear ERα immunoblot, HeLa; type: cell-based; parameters: key to Total Nuclear Estrogen Receptor / PCNA accumulation: “+” indicates increase; “−” indicates decrease; “NC” indicates no change
# Protocol: as §1
# [9] = system: small cell lung cancer HTB 184 cells; test: PCNA and nuclear ERα immunoblot, HTB 184; type: cell-based, human; parameters: key to Total Nuclear Estrogen Receptor / PCNA accumulation: “+” indicates increase; “−” indicates decrease; “NC” indicates no change
# Protocol: as §1
# [10] = system: LNCaP prostate carcinoma cells; test: PCNA and nuclear ERα immunoblot, LNCaP; type: cell-based, human; parameters: key to Total Nuclear Estrogen Receptor / PCNA accumulation: “+” indicates increase; “−” indicates decrease; “NC” indicates no change
# Protocol: as §1
# [11] = HTB 184 (Small Cell Lung Cancer)
structure (smiles),measurement,setting,value
"C[C@]12CC[C@@H]3c4ccc(O)cc4CC[C@H]3[C@@H]1CC[C@@H]2O [E2, 17β-estradiol]","MAPK activation (pMAPK) and ER serine phosphorylation (pER), nuclear fraction immunoblot",[1],"activates MAPK, e.g., in T47-D human breast cancer cells and serine-phosphorylates ER"
same,PCNA accumulation,[2]; DU 145 (Prostate Cancer),−
same,Total Nuclear Estrogen Receptor,[2]; DU 145 (Prostate Cancer),−
same,nuclear ERα,"[2]; DU145, 10^−9 M E2 or 10^−6 M AFP-peptide, 24 h",did not increase nuclear accumulation of ERα
same,PCNA accumulation,[3]; Colo205 (Colon Cancer),NC
same,Total Nuclear Estrogen Receptor,[3]; Colo205 (Colon Cancer),NC
same,nuclear ERα,"[3]; Colo 205, 10^−9 M E2 or 10^−7 M AFP-peptide, 24 h",did not increase nuclear accumulation of ER
same,PCNA accumulation,[4]; GL261 (Glioma),−
same,Total Nuclear Estrogen Receptor,[4]; GL261 (Glioma),+
same,nuclear ERα,"[4]; GL261, 10^−9 M E2 or 10^−6 M AFP-peptide, 24 h",increased nuclear accumulation of ERα
same,PCNA accumulation,[5]; C6 (Glioma),+
same,Total Nuclear Estrogen Receptor,[5]; C6 (Glioma),+
same,nuclear ERα,"[5]; C6, 10^−9 M E2 or 10^−6 M AFP-peptide, 24 h",increased nuclear accumulation of ERα
same,PCNA accumulation,[6]; F98 (Glioma),+
same,Total Nuclear Estrogen Receptor,[6]; F98 (Glioma),+
same,nuclear ERα,"[6]; F98, 10^−9 M E2 or 10^−6 M AFP-peptide, 24 h",increased nuclear accumulation of ERα
same,PCNA accumulation,[7]; 22B (Head Neck Cancer),+
same,Total Nuclear Estrogen Receptor,[7]; 22B (Head Neck Cancer),+
same,nuclear ERα,"[7]; 22B, 10^−9M E2 or 10^−7 M AFP-peptide, 24 h",increased nuclear accumulation of ERα
same,PCNA accumulation,[8]; HeLa (Cervical Cancer),+
same,Total Nuclear Estrogen Receptor,[8]; HeLa (Cervical Cancer),+
same,nuclear ERα,"[8]; HeLa, 10^−9M E2 or 10^−7 M AFP-peptide, 24 h",Neither E2 or AFP-peptide decreased nuclear accumulation of ERα
same,PCNA accumulation,[9]; [11],+
same,Total Nuclear Estrogen Receptor,[9]; [11],+
same,nuclear ERα,"[9]; HTB 184, 10^−9M E2 or 10^−6 M AFP-peptide, 24 h",increased nuclear ERα accumulation
same,PCNA accumulation,[10]; LNCaP (Prostate Cancer),+
same,Total Nuclear Estrogen Receptor,[10]; LNCaP (Prostate Cancer),NC
same,nuclear ERα,"[10]; LNCaP, 10^−9 M E2 or 10^−6 M AFP-peptide, 24 h",did not increase nuclear accumulation of ERα
